From publication PMC12266748, “A Xanthine Derivative With Novel Heat Shock Protein 90‐Alpha Inhibitory and Senolytic Properties” (Aging Cell, 2025)

Tested on: p16-3MR mice
Assay: Pilot study in aged p16-3MR mice (safety, bioluminescence, ear biopsy markers, cytokines)
Assay type: in vivo
Method: Sections were prepared from organs and ear biopsies from snap‐frozen tissues and mounted on SuperFrost Plus slides (VWR). SA‐β‐gal staining was performed according to the manufacturer's instructions for the Sigma‐Aldrich‐QIA117 staining kit (Sigma‐Aldrich). Nuclei were counterstained with Nuclear Fast Red (Sigma‐Aldrich), and images were acquired using a Zeiss AxioCam HRc mounted on a Leitz Laborlux S light microscope. The percentage of senescent cells was determined with QuPath v. 0.3.2 (Bankhead et al. [2017]).
All experiments were performed per the European Community Council Directives of 2010/63/UE. The pilot study (PS) investigated safety and potential senolytic efficacy, and the Extended study (ES) investigated functional changes, pathological phenotype, and the principal organ targeted by K5. Protocols were approved according to current Italian law (D.Lgs. n. 26/2014) by OPBA (animal care and health committee) of IRCCS INRCA and by the General Direction of Animal Health and Veterinary Drugs of the Italian Ministry of Health with authorization n°‐137/2021‐PR for PS and authorization n°‐370/2022‐PR for ES. In the PS of p16‐3MR mice (26 months), bioluminescence associated with p16‐expression was monitored before and after treatment, and the health of the mice was longitudinally studied. The ES used geriatric C57BL/6J mice (31 months). Clinical health and physical performance were analyzed before and after K5 treatment. Subsequently, the animals were euthanized, gross necropsies were performed, and organs were collected for further analysis. Detailed protocols are reported in the extended section.
Blood samples were collected from the right retroorbital plexus. Glucose (GLUC), creatinine (CREA), aspartate aminotransferase (AST/GOT), and alanine aminotransferase (ALT/GPT) were determined in EDTA‐plasma by using an automated analyzer (Cobas Mira, Roche) according to the manufacturer's instructions. Cytokines were measured in EDTA‐plasma using the ProcartaPlex Mouse Cytokine & Chemokine Panel 1, 26plex (Thermofisher) and read in the Luminex 200 instrument (Bio‐Rad), following the producer's recommendation.
Total RNA was extracted from ear biopsies using the RNeasy kit (Qiagen) according to the manufacturer's instructions and quantified by NanoDrop. β‐actin, p‐21, and p‐53 gene expression levels were analyzed on a BioRad iQ5 optical RT‐PCR (BioRad).
Experimental animals' bioluminescence imaging (BLI) was performed with an IVIS Spectrum system (PerkinElmer). Mice were intraperitoneally injected with Xenolight RediJect Coelenterazine h (PerkinElmer), and bioluminescent images were obtained with mice in the dorsal and ventral positions; the Living Image software quantified bioluminescence acquired by the CCD camera.
. To explore the safety of K5 and its potential impact on the aging process, p16-3MR mice were longitudinally studied in this pilot experiment. They were monitored once a month until natural death using a non-invasive protocol designed to assess their clinical health and physical performance across various functional domains associated with frailty. Additionally, to provide an initial overview of K5 effects on senescent cells, non-invasive and exploratory analyses (senescence markers in ear biopsies, p16 expression measured by in vivo bioluminescence assay, and circulating cytokine profile) were performed before the start of the treatment (T0) and after 20 days following the end of K5 administration (T1).
Circulating cytokines assay. Blood samples were collected from the right retroorbital plexus of anesthetized mice. Blood samples were deposited in serum separator gel tubes (Microvette CB300, Sarstedt) and centrifuged (1000 × g, 10 min) for serum separation. Concentrations of glucose (GLUC), creatinine (CREA), aspartate aminotransferase (AST/GOT), and alanine aminotransferase (ALT/GPT) were determined in EDTA-plasma by using an automated analyzer (Cobas Mira, Roche) according to the manufacturer's instructions. […]

Cc1ccccc1-n1c(=O)n(Cc2ccccc2)c(=O)c2[nH]cnc21 [Compound K5, 1-benzyl-3-(2-methylphenyl)-7H-purine-2,6-dione]
median lifespan of treated animals, females (10 mg/kg i.p., p16-3MR mice): 953 ± 35 days | median lifespan of treated animals, males (10 mg/kg i.p., p16-3MR mice): 1097 ± 78 days | adverse reactions, behavioral stereotypes, mortality after administration (10 mg/kg i.p., three injections over three consecutive days): did not induce any adverse reactions | SA-β-gal activity in ear biopsies (T1, 10 mg/kg i.p.): reduction | circulating IL-1β (T1 vs T0, 10 mg/kg i.p.): trend (p < 0.01) toward decreased | circulating IL-6 (T1 vs T0, 10 mg/kg i.p.): reduction | p16 expression by in vivo bioluminescence, ventral and dorsal signals (T1 vs T0, 10 mg/kg i.p.): significant reduction | p21 mRNA expression in ear biopsies (T1 vs T0, 10 mg/kg i.p.): decreasing trend | p53 mRNA expression in ear biopsies (T1 vs T0, 10 mg/kg i.p.): reduction in p53 expression at T1 was statistically significant
